Experimental data: patent US20050282755A1, “Compositions having antimicrobial activity and uses thereof” (priority 2004, published 2005)
Values after ≈ are worked out from the molar mass of the structure shown. Starred links: 1 amine or outer side, 2 acyl side, 3 side chain; linkers in the order of their positions; H or OH if unused. Non-standard residues stand in square brackets, D forms with d. Residues, ends and D or L forms follow the SMILES beside them. *: point of attachment. Ethylenediamine = C(CN[*:2])N[*:1]; Lauroyl = CCCCCCCCCCCC(=O)*; Decanoyl = CCCCCCCCCC(=O)*; Octanoyl = CCCCCCCC(=O)*

Assays:
Format in all cases: cell-based
[1] = system: Staphylococcus aureus ATCC 29213; test: MIC, NCCLS M7-A6 broth microdilution, cation-adjusted Mueller Hinton broth (Table 9, no superscript); details: ATCC 29213
Method in brief: (§1)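 Broth microdilution in cation-adjusted Mueller Hinton broth with log-phase inoculum at 5×10^5 to 1×10^6 CFU/mL, incubated overnight at 37° C. MIC was the lowest peptide concentration showing no visible turbidity versus the no-peptide control.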

[2] = system: Escherichia coli ATCC 25922; test: MIC, NCCLS M7-A6 broth microdilution (Table 9, no superscript); details: ATCC 25922
Method in brief: as §1

[3] = system: Pseudomonas aeruginosa ATCC 27853; test: as above; details: ATCC 27853
Method in brief: as §1

Salmonella dublin (Lane) = test: as above
Method in brief: as §1

[4] = system: Staphylococcus epidermidis ATCC 12228; test: as above; details: ATCC 12228
Method in brief: as §1

[5] = system: Propionibacterium acnes ATCC 6919; test: MIC, agar dilution method NCCLS M11-A6, Brucella agar, anaerobic (Table 9, superscript c); details: ATCC 6919
Method in brief: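 MIC taken as the lowest peptide level giving no colonies on the plate. Plates were inoculated to 1.5×10^8 CFU/milliliter, then kept anaerobically at 37° C. for 48-96 hours; method follows NCCLS M11-A6.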

[6] = system: Candida albicans ATCC 18804; test: MIC in yeasts, NCCLS M27-A2 broth microdilution, RPMI 1640 (Table 9, letter e); details: ATCC 18804
Method in brief: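 Plates incubated 24 to 48 hours at 37° C, with yeast seeded at 0.5×10^3–2.5×10^3 CFU/milliliter final in RPMI 1640 (glutamine, phenol red indicator). MIC was read as the lowest peptide concentration showing no visible growth.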

Row | Structure (SMILES) | MIC S. aureus [1] | MIC E. coli [2] | MIC P. aeruginosa [3] | MIC S. dublin (Salmonella dublin (Lane)) | MIC S. epidermidis [4] | MIC P. acnes [5] | MIC C. albicans [6]
1 | CCCCCCCCCC(=O)NCCCC[C@H](NC(=O)[C@H](CCCNC(=N)N)NC(=O)[C@H](CCSC)NC(=O)[C@H](Cc1ccccc1)NC(=O)[C@H](CC(N)=O)NC(=O)[C@H](CCCNC(=N)N)NC(=O)[C@H](C)NC(=O)[C@@H](NC(=O)[C@H](CC(=O)O)NC(=O)[C@H](CCCNC(=N)N)NC(=O)[C@H](Cc1c[nH]c2ccccc12)NC(=O)[C@H](CCCNC(=N)N)NC(=O)[C@H](CO)NC(=O)[C@@H](N)CCCNC(=N)N)C(C)C)C(N)=O [Peptide 185, H2N-RSRWRDVARNFMRK(Decanyl)-NH2] (H-RSRWRDVARNFMRK(Decanoyl)-NH2) | 4 µg/mL (≈ 1.97 µM) | 8 µg/mL (≈ 3.94 µM) | 16 µg/mL (≈ 7.88 µM) | 16 µg/mL (≈ 7.88 µM) | 1 µg/mL (≈ 0.492 µM) | 32c ug/mL | 32e ug/mL
2 | CCCCCCCCCCCC(=O)N[C@@H](CCCNC(=N)N)C(=O)N[C@@H](CO)C(=O)N[C@@H](CCCNC(=N)N)C(=O)N[C@@H](Cc1c[nH]c2ccccc12)C(=O)N[C@@H](CCCNC(=N)N)C(=O)N[C@@H](CC(=O)O)C(=O)N[C@H](C(=O)N[C@@H](C)C(=O)N[C@@H](CCCNC(=N)N)C(=O)N[C@@H](CC(N)=O)C(=O)N[C@@H](Cc1ccccc1)C(=O)N[C@@H](CCSC)C(N)=O)C(C)C [Peptide 98, Lauryl-RSRWRDVARNFM-NH2] (Lauroyl-RSRWRDVARNFM-NH2) | 4 µg/mL (≈ 2.25 µM) | 16 µg/mL (≈ 9.01 µM) | 64 µg/mL (≈ 36.1 µM) | 16 µg/mL (≈ 9.01 µM) | 8 µg/mL (≈ 4.51 µM) | >64c ug/mL | 16e ug/mL
3 | CCCCCCCCCCCC(=O)N[C@H](CCCNC(=N)N)C(=O)N[C@H](CO)C(=O)N[C@H](CCCNC(=N)N)C(=O)N[C@H](Cc1c[nH]c2ccccc12)C(=O)N[C@H](CCCNC(=N)N)C(=O)N[C@H](CCC(=O)O)C(=O)N[C@@H](C(=O)N[C@H](C)C(=O)N[C@H](CCCNC(=N)N)C(=O)N[C@H](CC(N)=O)C(=O)N[C@H](Cc1ccccc1)C(=O)N[C@H](CC(C)C)C(=O)N[C@H](CCCNC(=N)N)C(N)=O)C(C)C [Peptide 221, Lauryl-rsrwrevarnflr-NH2] (Lauroyl-[dR][dS][dR][dW][dR][dE][dV][dA][dR][dN][dF][dL][dR]-NH2) | 4 µg/mL (≈ 2.08 µM) | 8 µg/mL (≈ 4.15 µM) | 8 µg/mL (≈ 4.15 µM) | 8 µg/mL (≈ 4.15 µM) | 2 µg/mL (≈ 1.04 µM) | 32c ug/mL | 2e ug/mL
4 | CCCCCCCCCC(=O)NCCCC[C@@H](NC(=O)[C@@H](CCCNC(=N)N)NC(=O)[C@@H](CC(C)C)NC(=O)[C@@H](Cc1ccccc1)NC(=O)[C@@H](CC(N)=O)NC(=O)[C@@H](CCCNC(=N)N)NC(=O)[C@@H](C)NC(=O)[C@H](NC(=O)[C@@H](CC(=O)O)NC(=O)[C@@H](CCCNC(=N)N)NC(=O)[C@@H](Cc1c[nH]c2ccccc12)NC(=O)[C@@H](CCCNC(=N)N)NC(=O)[C@@H](CO)NC(=O)[C@H](N)CCCNC(=N)N)C(C)C)C(N)=O [Peptide 194, H2N-rsrwrdvarnflrk(Decanyl)-NH2] (H-[dR][dS][dR][dW][dR][dD][dV][dA][dR][dN][dF][dL][dR][dK](Decanoyl)-NH2) | 2 µg/mL (≈ 0.993 µM) | 2 µg/mL (≈ 0.993 µM) | 2 µg/mL (≈ 0.993 µM) | 4 µg/mL (≈ 1.99 µM) | 1 µg/mL (≈ 0.497 µM) | 4c ug/mL | 16e ug/mL
5 | CCCCCCCCCCCC(=O)N[C@H](CCCNC(=N)N)C(=O)N[C@H](CO)C(=O)N[C@H](CCCNC(=N)N)C(=O)N[C@H](Cc1c[nH]c2ccccc12)C(=O)N[C@H](CCCNC(=N)N)C(=O)N[C@H](CC(=O)O)C(=O)N[C@@H](C(=O)N[C@H](C)C(=O)N[C@H](CCCNC(=N)N)C(N)=O)C(C)C [Peptide 118, Lauryl-rsrwrdvar-NH2] (Lauroyl-[dR][dS][dR][dW][dR][dD][dV][dA][dR]-NH2) | 8 µg/mL (≈ 5.79 µM) | 64 µg/mL (≈ 46.3 µM) | 32 µg/mL (≈ 23.1 µM) | >64 µg/mL | 8 µg/mL (≈ 5.79 µM) | 16c ug/mL | 32e ug/mL
6 | CCCCCCCCCCCC(=O)NCCCC[C@@H](NC(=O)[C@@H](CCCNC(=N)N)NC(=O)[C@@H](CCSC)NC(=O)[C@@H](Cc1ccccc1)NC(=O)[C@@H](CC(N)=O)NC(=O)[C@@H](CCCNC(=N)N)NC(=O)[C@@H](C)NC(=O)[C@H](NC(=O)[C@@H](CC(=O)O)NC(=O)[C@@H](CCCNC(=N)N)NC(=O)[C@@H](Cc1c[nH]c2ccccc12)NC(=O)[C@@H](CCCNC(=N)N)NC(=O)[C@@H](CO)NC(=O)[C@H](N)CCCNC(=N)N)C(C)C)C(N)=O [Peptide 200, H2N-rsrwrdvarnfmrk(Lauryl)-NH2] (H-[dR][dS][dR][dW][dR][dD][dV][dA][dR][dN][dF][dM][dR][dK](Lauroyl)-NH2) | 2 µg/mL (≈ 0.971 µM) | 4 µg/mL (≈ 1.94 µM) | 4 µg/mL (≈ 1.94 µM) | 8 µg/mL (≈ 3.88 µM) | 1 µg/mL (≈ 0.486 µM) | 8c ug/mL | 8e ug/mL
7 | CCCCCCCC(=O)N[C@H](CCCNC(=N)N)C(=O)N[C@H](CO)C(=O)N[C@H](CCCNC(=N)N)C(=O)N[C@H](Cc1c[nH]c2ccccc12)C(=O)N[C@H](CCCNC(=N)N)C(=O)N[C@H](CC(=O)O)C(=O)N[C@@H](C(=O)N[C@H](C)C(=O)N[C@H](CCCNC(=N)N)C(=O)N[C@H](CC(N)=O)C(=O)N[C@H](Cc1ccccc1)C(=O)N[C@H](CC(C)C)C(=O)N[C@H](CCCNC(=N)N)C(N)=O)C(C)C [Peptide 252, Octyl-rsrwrdvarnflr-NH2] (Octanoyl-[dR][dS][dR][dW][dR][dD][dV][dA][dR][dN][dF][dL][dR]-NH2) | 16 µg/mL (≈ 8.62 µM) | 16 µg/mL (≈ 8.62 µM) | 16 µg/mL (≈ 8.62 µM) | 64 µg/mL (≈ 34.5 µM) | 2 µg/mL (≈ 1.08 µM) | 16c ug/mL | 64e ug/mL
8 | CCCCCCCCCCCC(=O)N[C@H](CCCNC(=N)N)C(=O)N[C@H](CCCNC(=N)N)C(=O)N[C@H](CCCNC(=N)N)C(=O)N[C@H](Cc1c[nH]c2ccccc12)C(=O)N[C@H](CCCNC(=N)N)C(=O)N[C@H](CCCNC(=N)N)C(=O)N[C@@H](C(=O)N[C@H](C)C(=O)N[C@H](CCCNC(=N)N)C(=O)N[C@H](CCCNC(=N)N)C(=O)N[C@H](Cc1ccccc1)C(=O)N[C@H](CC(C)C)C(=O)N[C@H](CCCNC(=N)N)C(N)=O)C(C)C [Peptide 222, Lauryl-rrrwrrvarrflr-NH2] (Lauroyl-[dR][dR][dR][dW][dR][dR][dV][dA][dR][dR][dF][dL][dR]-NH2) | 4 µg/mL (≈ 1.94 µM) | 16 µg/mL (≈ 7.75 µM) | 8 µg/mL (≈ 3.87 µM) | >64 µg/mL | 1 µg/mL (≈ 0.484 µM) | >64c ug/mL | 2e ug/mL
9 | CCCCCCCCCCCC(=O)NCCNC(=O)[C@H](CCCNC(=N)N)NC(=O)[C@H](CCSC)NC(=O)[C@H](Cc1ccccc1)NC(=O)[C@H](CC(N)=O)NC(=O)[C@H](CCCNC(=N)N)NC(=O)[C@H](C)NC(=O)[C@@H](NC(=O)[C@H](CC(=O)O)NC(=O)[C@H](CCCNC(=N)N)NC(=O)[C@H](Cc1c[nH]c2ccccc12)NC(=O)[C@H](CCCNC(=N)N)NC(=O)[C@H](CO)NC(=O)[C@@H](N)CCCNC(=N)N)C(C)C [Peptide 176, H2N-RSRWRDVARNFMR-Ethylamidolauryl] (H-RSRWRDVARNFMR-{Ethylenediamine-Lauroyl}; C-terminus assumed) | 8 µg/mL (≈ 4.05 µM) | 8 µg/mL (≈ 4.05 µM) | 32 µg/mL (≈ 16.2 µM) | 16 µg/mL (≈ 8.1 µM) | 1 µg/mL (≈ 0.506 µM) | 64c ug/mL | 4e ug/mL
10 | CCCCCCCCCCCC(=O)N[C@H](CCCNC(=N)N)C(=O)N[C@H](CO)C(=O)N[C@H](CCCNC(=N)N)C(=O)N[C@H](Cc1c[nH]c2ccccc12)C(=O)N[C@H](CCCNC(=N)N)C(=O)N[C@H](CC(=O)O)C(=O)N[C@@H](C(N)=O)C(C)C [Peptide 120, Lauryl-rsrwrdv-NH2] (Lauroyl-[dR][dS][dR][dW][dR][dD][dV]-NH2) | 16 µg/mL (≈ 13.8 µM) | >64 µg/mL | 64 µg/mL (≈ 55.4 µM) | >64 µg/mL | 16 µg/mL (≈ 13.8 µM) | 64c ug/mL | 64e ug/mL
